Laboratory results reported in PubChem BioAssay AID2060607 (Molecular Pharmacology Branch, DTP, NCI, 2025).

Test system: 876862-298-R-J1-PDC complex spheroids, viability % test/control
Test: Anticancer human tumor 876862-298-R-J1-PDC patient-derived endometrial carcinoma cell line growth inhibition [CLK]
Details: for IC50: curve of first compound; for viability, T/C: stronger effect = lower value
In short: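 Patient-derived tumor cells grown as complex spheroids with HUVEC endothelial cells and mesenchymal stem cells, treated with drug combinations. Concentrations descend in half-log steps from near clinical Cmax, or from 10 microM if Cmax unknown.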
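Further: spheroids exposed to drugs for 7 days before readout.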
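Wherever viability, T/C is given: 100% = DMSO vehicle control wells.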

Work on CC(C)CC(NC(=O)C(Cc1ccccc1)NC(=O)c1cnccn1)B(O)O (centres undefined) + CN1CCN(c2cc(C(=O)Nc3cc4cc(-c5cnn(C)c5)ccc4cn3)ccn2)CC1 yielded an IC50 (second compound 0.0316 µM) of 1.77 nM, an IC50 (second compound 0.1 µM) of 0.97 nM and an IC50 (second compound 0.316 µM) of under 0.949 nM. For the same compound, the IC50 (second compound 1 µM) was under 0.949 nM, the IC50 (second compound 3.16 µM) was under 0.949 nM and the IC50 (second compound 10 µM) was under 0.949 nM. It also gave a viability, T/C (second compound 0.0316 µM, first compound 0.000949 µM) of 92.9%, a viability, T/C (second compound 0.0316 µM, first compound 0.003 µM) of 13.8% and a viability, T/C (second compound 0.0316 µM, first compound 0.00949 µM) of 1.49%. It also gave a viability, T/C (second compound 0.0316 µM, first compound 0.03 µM) of 0.54%, a viability, T/C (second compound 0.0316 µM, first compound 0.0949 µM) of 0.87% and a viability, T/C (second compound 0.0316 µM, first compound 0.3 µM) of 0.26%. The viability, T/C (second compound 0.1 µM, first compound 0.000949 µM) was 50.9%, the viability, T/C (second compound 0.1 µM, first compound 0.003 µM) was 9.76% and the viability, T/C (second compound 0.1 µM, first compound 0.00949 µM) was 0.72%. It also gave a viability, T/C (second compound 0.1 µM, first compound 0.03 µM) of 0.44%, a viability, T/C (second compound 0.1 µM, first compound 0.0949 µM) of 0.43% and a viability, T/C (second compound 0.1 µM, first compound 0.3 µM) of 0.26%. It also gave a viability, T/C (second compound 0.316 µM, first compound 0.000949 µM) of 2.77%, a viability, T/C (second compound 0.316 µM, first compound 0.003 µM) of 0.46% and a viability, T/C (second compound 0.316 µM, first compound 0.00949 µM) of 1.45%. For the same compound, the viability, T/C (second compound 0.316 µM, first compound 0.03 µM) was 0.39%, the viability, T/C (second compound 0.316 µM, first compound 0.0949 µM) was 0.5% and the viability, T/C (second compound 0.316 µM, first compound 0.3 µM) was 0.26%. For the same compound, the viability, T/C (second compound 1 µM, first compound 0.000949 µM) was 0.6%, the viability, T/C (second compound 1 µM, first compound 0.003 µM) was 0.27% and the viability, T/C (second compound 1 µM, first compound 0.00949 µM) was 0.45%. It also gave a viability, T/C (second compound 1 µM, first compound 0.03 µM) of 0.53%, a viability, T/C (second compound 1 µM, first compound 0.0949 µM) of 0.45% and a viability, T/C (second compound 1 µM, first compound 0.3 µM) of 0.57%. The viability, T/C (second compound 3.16 µM, first compound 0.000949 µM) was 1.3%, the viability, T/C (second compound 3.16 µM, first compound 0.003 µM) was 0.5% and the viability, T/C (second compound 3.16 µM, first compound 0.00949 µM) was 0.68%. It also gave a viability, T/C (second compound 3.16 µM, first compound 0.03 µM) of 0.95%, a viability, T/C (second compound 3.16 µM, first compound 0.0949 µM) of 0.69% and a viability, T/C (second compound 3.16 µM, first compound 0.3 µM) of 0.43%. It also gave a viability, T/C (second compound 10 µM, first compound 0.000949 µM) of 0.67%, a viability, T/C (second compound 10 µM, first compound 0.003 µM) of 0.32% and a viability, T/C (second compound 10 µM, first compound 0.00949 µM) of 1.9%. For the same compound, the viability, T/C (second compound 10 µM, first compound 0.03 µM) was 0.44%, the viability, T/C (second compound 10 µM, first compound 0.0949 µM) was 0.42% and the viability, T/C (second compound 10 µM, first compound 0.3 µM) was 0.27%.
O=C(c1cc(Cc2n[nH]c(=O)c3ccccc23)ccc1F)N1CCN(C(=O)C2CC2)CC1 + CN1CCN(c2cc(C(=O)Nc3cc4cc(-c5cnn(C)c5)ccc4cn3)ccn2)CC1 gave an IC50 (second compound 0.0316 µM) of over 10000 nM, an IC50 (second compound 0.1 µM) of 633 nM and an IC50 (second compound 0.316 µM) of under 31.6 nM. It also gave an IC50 (second compound 1 µM) of under 31.6 nM, an IC50 (second compound 3.16 µM) of under 31.6 nM and an IC50 (second compound 10 µM) of under 31.6 nM. It also gave a viability, T/C (second compound 0.0316 µM, first compound 0.0316 µM) of 88.1%, a viability, T/C (second compound 0.0316 µM, first compound 0.1 µM) of 95.5% and a viability, T/C (second compound 0.0316 µM, first compound 0.316 µM) of 85.7%. For the same compound, the viability, T/C (second compound 0.0316 µM, first compound 1 µM) was 94.9%, the viability, T/C (second compound 0.0316 µM, first compound 3.16 µM) was 96.2% and the viability, T/C (second compound 0.0316 µM, first compound 10 µM) was 74.6%. It also gave a viability, T/C (second compound 0.1 µM, first compound 0.0316 µM) of 51.3%, a viability, T/C (second compound 0.1 µM, first compound 0.1 µM) of 50.5% and a viability, T/C (second compound 0.1 µM, first compound 0.316 µM) of 50.9%. The viability, T/C (second compound 0.1 µM, first compound 1 µM) was 50.6%, the viability, T/C (second compound 0.1 µM, first compound 3.16 µM) was 45% and the viability, T/C (second compound 0.1 µM, first compound 10 µM) was 35.2%. It also gave a viability, T/C (second compound 0.316 µM, first compound 0.0316 µM) of 2.72%, a viability, T/C (second compound 0.316 µM, first compound 0.1 µM) of 3.01% and a viability, T/C (second compound 0.316 µM, first compound 0.316 µM) of 2.89%. It also gave a viability, T/C (second compound 0.316 µM, first compound 1 µM) of 3.34%, a viability, T/C (second compound 0.316 µM, first compound 3.16 µM) of 3.07% and a viability, T/C (second compound 0.316 µM, first compound 10 µM) of 2.03%. For the same compound, the viability, T/C (second compound 1 µM, first compound 0.0316 µM) was 0.78%, the viability, T/C (second compound 1 µM, first compound 0.1 µM) was 1.06% and the viability, T/C (second compound 1 µM, first compound 0.316 µM) was 0.79%. It also gave a viability, T/C (second compound 1 µM, first compound 1 µM) of 0.54%, a viability, T/C (second compound 1 µM, first compound 3.16 µM) of 0.67% and a viability, T/C (second compound 1 µM, first compound 10 µM) of 0.77%. For the same compound, the viability, T/C (second compound 3.16 µM, first compound 0.0316 µM) was 1.02%, the viability, T/C (second compound 3.16 µM, first compound 0.1 µM) was 0.99% and the viability, T/C (second compound 3.16 µM, first compound 0.316 µM) was 1.13%. It also gave a viability, T/C (second compound 3.16 µM, first compound 1 µM) of 1.07%, a viability, T/C (second compound 3.16 µM, first compound 3.16 µM) of 2.34% and a viability, T/C (second compound 3.16 µM, first compound 10 µM) of 1.07%. It also gave a viability, T/C (second compound 10 µM, first compound 0.0316 µM) of 0.83%, a viability, T/C (second compound 10 µM, first compound 0.1 µM) of 0.87% and a viability, T/C (second compound 10 µM, first compound 0.316 µM) of 0.89%. It also gave a viability, T/C (second compound 10 µM, first compound 1 µM) of 1.19%, a viability, T/C (second compound 10 µM, first compound 3.16 µM) of 1.06% and a viability, T/C (second compound 10 µM, first compound 10 µM) of 0.83%.
